In brackets after ≈: the same amount, converted by molar mass.
How the values were obtained:
[1] = tested on: Candida albicans; test: Antifungal activity against Candida albicans SC5314 assessed as reduction in fungal growth incubated for 48 hrs by liquid based microdilution method; type: functional
[2] = tested on: Candida albicans; test: Antifungal activity against Candida albicans 0304103 assessed as reduction in fungal growth incubated for 48 hrs by liquid based microdilution method; type: functional
[3] = tested on: Candida tropicalis; test: Antifungal activity against Candida tropicalis 10186 assessed as reduction in fungal growth incubated for 48 hrs by liquid based microdilution method; type: functional
[4] = tested on: Nakaseomyces glabratus; test: Antifungal activity against Candida glabrata 9073 assessed as reduction in fungal growth incubated for 48 hrs by liquid based microdilution method; type: functional
[5] = tested on: Cryptococcus neoformans; test: Antifungal activity against Cryptococcus neoformans H99 assessed as reduction in fungal growth incubated for 72 hrs by liquid based microdilution method; type: functional
[6] = tested on: Candida albicans; test: Synergistic antifungal activity against Candida albicans 0304103 assessed as inhibition of fungal growth incubated for 48 hrs in presence of fluconazole by checkerboard microdilution assay; type: functional
[7] = tested on: Candida albicans; test: Synergistic antifungal activity against Candida albicans 0304103 assessed as fractional inhibitory concentration index by measuring ratio of MIC80 for compound and synergetic / MIC80 for compound alone + MIC80 for fluconazole synergetic / MIC80 for fluconazole alone; type: functional
[8] = tested on: Cryptococcus neoformans; test: Antifungal activity against Cryptococcus neoformans ATCC 34877 assessed as reduction in fungal growth incubated for 72 hrs by liquid based microdilution method; type: functional
[9] = Antifungal activity against Cryptococcus gattii VGI ATCC 14116 assessed as reduction in fungal growth incubated for 72 hrs by liquid based microdilution method; type: functional
[10] = tested on: Candida albicans; test: Antagonistic antifungal activity against Candida albicans 0304103 assessed as fractional inhibitory concentration index by measuring ratio of MIC80 for compound and synergetic / MIC80 for compound alone + MIC80 for fluconazole synergetic / MIC80 for fluconazole alone; type: functional
[11] = Effective permeability of the compound across blood brain barrier incubated for 12 hrs by PAMPA assay; type: ADME; details: read-out: Peff

Row | MIC80 [1] | MIC80 [2] | MIC80 [3] | MIC80 [4] | MIC80 [5] | MIC80 [6] | MIC80 [8] | MIC80 [9] | Papp at 12 h [11] | Compound | fractional inhibitory concentration index (FICI) [7] | fractional inhibitory concentration index (FICI) [10]
1 | > 64 µg/mL | > 64 µg/mL | > 64 µg/mL | > 64 µg/mL | 32 µg/mL (≈ 132 µM) | 2 µg/mL | – | – | – | CO/N=C1/c2ccccc2C(=O)c2c(C)noc21 | 0.047 | –
2 | > 64 µg/mL | > 64 µg/mL | > 64 µg/mL | > 64 µg/mL | 0.13 µg/mL (≈ 0.496 µM) | 2 µg/mL | 0.13 µg/mL (≈ 0.496 µM) | 4 µg/mL (≈ 15.3 µM) | – | CCc1noc2c1C(=O)c1sccc1/C2=N/OC | 0.047 | –
3 | > 64 µg/mL | > 64 µg/mL | > 64 µg/mL | > 64 µg/mL | 32 µg/mL (≈ 115 µM) | > 64 µg/mL | – | – | – | CO/N=C1/c2ccsc2/C(=N\OC)c2ccsc21 | – | >2
4 | > 64 µg/mL | > 64 µg/mL | > 64 µg/mL | > 64 µg/mL | > 64 µg/mL | 2 µg/mL | – | – | – | CCO/N=C1/c2ccccc2C(=O)c2c(C)noc21 | 0.039 | –
5 | > 64 µg/mL | > 64 µg/mL | > 64 µg/mL | > 64 µg/mL | 0.25 µg/mL (≈ 1.07 µM) | 2 µg/mL | 8 µg/mL (≈ 34.2 µM) | 4 µg/mL (≈ 17.1 µM) | – | Cc1noc2c1C(=O)c1sccc1/C2=N/O | 0.094 | –
6 | 0.13 µg/mL (≈ 0.593 µM) | 0.5 µg/mL (≈ 2.28 µM) | 2 µg/mL (≈ 9.12 µM) | 1 µg/mL (≈ 4.56 µM) | 0.031 µg/mL (≈ 0.141 µM) | – | – | – | 7.69 ×10⁻⁶ cm/s | Cc1noc2c1C(=O)c1sccc1C2=O | – | –
7 | > 64 µg/mL | > 64 µg/mL | > 64 µg/mL | > 64 µg/mL | 8 µg/mL (≈ 35.1 µM) | 2 µg/mL | 8 µg/mL (≈ 35.1 µM) | 16 µg/mL (≈ 70.1 µM) | – | Cc1noc2c1C(=O)c1ccccc1/C2=N/O | 0.063 | –

Source: ChEMBL document CHEMBL5518232, “Discovery of New Tricyclic Oxime Sampangine Derivatives as Potent Antifungal Agents for the Treatment of Cryptococcosis and Candidiasis” (J Med Chem, 2024)
